# Legend:
# [1] = Stability against hydrolytic cleavage, aprotic versus aqueous solutions; format: physicochemical; details: aprotic solutions compared to aqueous solutions
# From the text: It is an additional aspect of the invention that the high solubility of the L-DOPA ester in aprotic solvents suitable for parenteral application (such as e.g. N-Methylpyrrolidone, Polysorbat 80, Dimethylacetamide, Solutol HS 15, Glycerol, Ethanol) also relates to L-DOPA esters known before the application date of WO 2016/155888 A1, in particular L-DOPA ethyl ester described in WO 2012/079072 A2 (Heller et al.). […] Moreover the stability is much higher even at pH-values of 5-8. L-DOPA ethyl ester solutions in aprotic solvents suitable for parenteral application could therefore solve tolerability problems known from earlier attempts to use L-DOPA ethyl ester in the treatment of neurological diseases.
# [2] = Enzymatic cleavage of L-DOPA esters in human plasma (ex vivo); details: pH 7.4, 37° C., after 2 hours, n=3
# Method: After 2, 15, 30, 45, 60 and 120 min 200 μL sample were taken, immediately deproteinized (200 μL 0.4N PCA), precipitated (200 μL 0.1% formic acid) and centrifuged. […] For purpose of comparison L-Dopa Ethyl Ester was investigated under same conditions.
Structure (SMILES),stability against hydrolytic cleavage [1],converted to L-Dopa [2] [%]
CCOC(=O)[C@@H](N)Cc1ccc(O)c(O)c1 [L-DOPA Ethyl Ester],higher stability against hydrolytic cleavage compared to aqueous solutions,50
N[C@@H](Cc1ccc(O)c(O)c1)C(=O)OCC(O)CO (stereo partly drawn) [L-DOPA Glycerin ester],,60

# Reference: US20190224153A1, “L-DOPA DERIVATIVES FOR THE TREATMENT OF NEUROLOGICAL DISEASES” (BERLIREM GMBH, priority 2016, published 2019)
